Source: patent US20240109912A1, “TRICYCLIC PYRIMIDINES AS CYCLIN-DEPENDENT KINASE 7 (CDK7) INHIBITORS” (JANSSEN PHARMACEUTICA NV, priority 2020, published 2024)
Values joined by “and” are separate entries in the source; they are usually repeats but may differ in a detail not shown here. Equal entries are not always repeated. Where two headings read alike, the source gives them in different places.

Experiments:
[1] = system: RNA polymerase II Serine 5 phosphorylation in A549 cells overexpressing CDK7 mutant (C312S); assay: Imaging-based cellular RNA PolII Ser5 phosphorylation assay in A549 cells overexpressing CDK7-mutant (C312S); format: cell-based, human; conditions: for IC50: Homo sapiens, A549, A549 cells overexpressing CDK7 mutant (C312S), read-out: CDK7_ A549 mutant hCDK7(pIC50) (converted); for CDK7_ A549 mutant hCDK7(pIC50): A549 cells overexpressing CDK7 mutant (C312S)
Experimental: Data were calculated and analyzed in Phaedra.
From this an IC50 value can be obtained.
In parallel this assay was performed in A549 cells overexpressing CDK7-mutant (C312S) to evaluate the effect of the covalent bond on potency and to screen for potential off-target effects. Mutation of Cysteine to Serine (C312S), a less nucleophilic amino acid, prevents CDK7 inhibitors from covalently binding to CDK7 and from inhibiting CDK7 activity in an irreversible manner. A stably transduced A549 cell pool was generated that overexpresses CDK7 mutant (C312S), but also expresses endogenous CDK7-WT. Covalent binders targeting the cysteine at position 312 will show a shift in potency in A549 cells overexpressing mutant C312S CDK7.

[2] = system: RNA polymerase II Serine 5 phosphorylation (CDK7) in A549 cells
[3] = biological target: CDK7/cyclinH/MAT1 trimeric complex (Homo sapiens (Human), UniProt P50613); assay: In vitro CDK7 assay, potency of irreversible covalent inhibitors (kinact/KI); conditions: for Ki: CDK7 (20 nM enz.) (KI, μM); for CDK7 (20 nM enz.) (kinact, s^−1) / CDK7 (20 nM enz.) (kinact/ KI, M^−1*s^−1) / Ki: 20 nM enz.; for kinact: read-out: CDK7 (20 nM enz.) (kinact, s^−1), 20 nM enz.
CDK7/cyclinH/MAT1 trimeric complex, sequence (P50613 whole entry): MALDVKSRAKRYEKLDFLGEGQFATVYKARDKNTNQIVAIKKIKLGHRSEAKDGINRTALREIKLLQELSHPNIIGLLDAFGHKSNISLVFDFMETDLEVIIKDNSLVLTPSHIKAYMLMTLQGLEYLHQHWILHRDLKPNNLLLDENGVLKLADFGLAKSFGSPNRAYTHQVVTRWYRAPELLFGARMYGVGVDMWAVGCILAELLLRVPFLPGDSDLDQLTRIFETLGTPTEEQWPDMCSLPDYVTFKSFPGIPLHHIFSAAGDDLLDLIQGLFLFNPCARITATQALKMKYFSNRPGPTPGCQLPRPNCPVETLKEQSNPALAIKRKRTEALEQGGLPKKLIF
CDK7/cyclinH/MAT1 trimeric complex, sequence (P51946 whole entry partner): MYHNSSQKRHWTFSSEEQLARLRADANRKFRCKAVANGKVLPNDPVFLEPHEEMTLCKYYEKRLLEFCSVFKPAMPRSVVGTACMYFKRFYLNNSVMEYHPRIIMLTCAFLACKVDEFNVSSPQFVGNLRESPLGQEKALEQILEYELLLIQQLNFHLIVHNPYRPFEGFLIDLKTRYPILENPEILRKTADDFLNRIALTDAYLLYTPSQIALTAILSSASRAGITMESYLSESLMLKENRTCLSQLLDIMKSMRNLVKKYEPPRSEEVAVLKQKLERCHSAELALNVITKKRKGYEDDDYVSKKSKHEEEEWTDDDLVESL
CDK7/cyclinH/MAT1 trimeric complex, sequence (P51948 whole entry partner): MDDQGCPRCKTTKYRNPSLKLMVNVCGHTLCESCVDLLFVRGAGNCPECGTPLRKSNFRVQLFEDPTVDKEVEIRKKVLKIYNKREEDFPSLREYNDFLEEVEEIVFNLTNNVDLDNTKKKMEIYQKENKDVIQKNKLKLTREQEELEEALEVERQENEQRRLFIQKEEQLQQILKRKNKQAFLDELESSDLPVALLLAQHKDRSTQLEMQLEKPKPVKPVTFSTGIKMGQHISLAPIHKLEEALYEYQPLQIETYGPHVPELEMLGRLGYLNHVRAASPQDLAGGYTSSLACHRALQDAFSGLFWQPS

Compound	IC50 [1]	IC50 [2]	other results
CC#CC(=O)N1CC(N2C3CCC2CC(c2cc(C)c4c(c2)Nc2ncnc(N5CCS(=O)(=O)CC5)c2[C@@H](C)O4)C3)C1 (mixture of isomers) [compound 182]	6.03 µM	~0.0724 µM	–
CC#CC(=O)N1CC(N2C3CCC2CC(c2cc(C)c4c(c2)Nc2ncnc(N5CCS(=O)(=O)CC5)c2[C@@H](C)O4)C3)C1 (mixture of isomers) [compound 183]	–	0.347 µM	CDK7_ A549 mutant hCDK7(pIC50) [1]: <5
C=CC(=O)N1CC[C@H](N2CC(c3cc4c(c(C5CC5)c3)O[C@@H](C)c3c(ncnc3N3CCS(=O)(=O)CC3)N4)C2)C1 (single isomer, unassigned) [compound 99]	> 10 µM	~0.794 µM	–
CC#CC(=O)N1CC[C@@H](N2CC(c3cc(C)c4c(c3)Nc3ncnc(N5CCS(=O)(=O)CC5)c3[C@H](C)O4)C2)C1 (single isomer, unassigned) [compound 131]	> 10 µM	–	CDK7_ A549 mutant hCDK7(pIC50) [1]: <5
CC#CC(=O)N1CC[C@@H](N2CCC(c3cc(C)c4c(c3)Nc3ncnc(N5CCS(=O)(=O)CC5)c3CO4)CC2)C1 (single isomer, unassigned) [compound 135]	> 10 µM	~0.0501 µM	–
CC#CC(=O)N1CC(N2CCC(c3cc4c(c(C)n3)O[C@H](C)c3c(ncnc3N3CCS(=O)(=O)CC3)N4)CC2)C1 (single isomer, unassigned) [compound 139]	> 10 µM	–	CDK7 (20 nM enz.) (kinact, s^−1) [3]: 6.2e-05 s⁻¹; Ki [3]: 0.135 µM and 0.0466 µM; kinact [3]: 5.63e-05 s⁻¹
CC#CC(=O)N1CC[C@@](C)(N2CCC(c3cc(C)c4c(c3)Nc3ncnc(N5CCS(=O)(=O)CC5)c3[C@@H](C)O4)CC2)C1 (single isomer, unassigned) [compound 145]	4.57 µM	~0.0145 µM	–
[2H][C@]1(N2CC(c3cc(C)c4c(c3)Nc3ncnc(N5CCS(=O)(=O)CC5)c3[C@@H](C)O4)C2)CCN(C(=O)C#CC)C1 (single isomer, unassigned) [compound 159]	> 10 µM	0.178 µM	–
[2H]C([2H])([2H])C#CC(=O)N1CC[C@H](N2CC(c3cc(C)c4c(c3)Nc3ncnc(N5CCS(=O)(=O)CC5)c3[C@@H](C)O4)C2)C1 (single isomer, unassigned) [compound 166]	> 10 µM	0.141 µM	–
CCC#CC(=O)N1CC[C@@H](N2CC(c3cc(C)c4c(c3)Nc3ncnc(N5CCS(=O)(=O)CC5)c3[C@@H](C)O4)C2)C1 (single isomer, unassigned) [compound 167]	> 10 µM	0.055 µM	–
Cc1cc(C2CN([C@H]3CCN(C(=O)C#CCN(C)C)C3)C2)cc2c1O[C@H](C)c1c(ncnc1N1CCS(=O)(=O)CC1)N2 (single isomer, unassigned) [compound 170]	7.24 µM	< 0.00977 µM	–
Cc1cc(C2CN([C@H]3CCN(C(=O)C#CCCN(C)C)C3)C2)cc2c1O[C@H](C)c1c(ncnc1N1CCS(=O)(=O)CC1)N2 (single isomer, unassigned) [compound 176]	9.12 µM	< 0.00977 µM	–
CC#CC(=O)N1CCOC([C@H]2C[C@@H](c3cc(C)c4c(c3)Nc3ncnc(N5CCS(=O)(=O)CC5)c3[C@@H](C)O4)C2)C1 (single isomer, unassigned) [compound 187]	> 10 µM	6.17 µM	–
C=CC(=O)N1CCC(N2CC(c3cc(C)c4c(c3)Nc3ncnc(N5CCS(=O)(=O)CC5)c3CO4)C2)C1 (stereo not drawn) [compound 112]	> 10 µM	0.204 µM	–
CC#CC(=O)N1CC[C@H](N2CC(c3cc(C)c4c(c3)Nc3ncnc(N5CCS(=O)(=O)CC5)c3CO4)C2)C1 [compound 126]	> 10 µM	0.513 µM	–
CC#CC(=O)N1CC[C@@H](N2CC(c3cc(C)c4c(c3)Nc3ncnc(N5CCS(=O)(=O)CC5)c3[C@@H](C)O4)C2)C1 [compound 130]	> 10 µM	–	–

Second part, led by results:

IC50 [1]	IC50 [2]	Compound	other results
> 10 µM	0.186 µM	CC#CC(=O)N1CC(N2CC(c3cc(C)c4c(c3)Nc3ncnc(N5CCS(=O)(=O)CC5)c3[C@@H](C)O4)C2)C(C)(C)C1 (mixture of isomers) [compound 184]	–
> 10 µM	0.347 µM	C=CC(=O)N1CC[C@@H](N2CC(c3cc4c(c(C5CC5)c3)O[C@@H](C)c3c(ncnc3N3CCS(=O)(=O)CC3)N4)C2)C1 (single isomer, unassigned) [compound 98]	–
> 10 µM	> 10 µM	C=CC(=O)N1CC(N2CC(c3cc(C)c4c(c3)Nc3ncnc(-c5cnn(C)c5)c3[C@H](C)O4)C2)C1 (single isomer, unassigned) [compound 108]	–
> 10 µM	–	C=CC(=O)N1CC[C@H](N2CCC(c3cc(C)c4c(c3)Nc3ncnc(N5CCS(=O)(=O)CC5)c3CO4)CC2)C1 (single isomer, unassigned) [compound 115]	CDK7_ A549 mutant hCDK7(pIC50) [1]: <5; CDK7 (20 nM enz.) (kinact, s^−1) [3]: 5.98e-05 s⁻¹; CDK7 (20 nM enz.) (kinact/ KI, M^−1*s^−1) [3]: 1377.97 M⁻¹ s⁻¹; Ki [3]: 0.0595 µM and 0.0434 µM; kinact [3]: 7.64e-05 s⁻¹; kinact/KI ([3]; read-out: CDK7 (20 nM enz.) (kinact/ KI, M^−1*s^−1), 20 nM enz.): 1280 M⁻¹ s⁻¹
> 10 µM	–	C=CC(=O)N1CC[C@H](N2CC(c3cc(C)c4c(c3)Nc3ncnc(N5CCS(=O)(=O)CC5)c3[C@@H](C)O4)C2)C1 (single isomer, unassigned) [compound 117]	CDK7_ A549 mutant hCDK7(pIC50) [1]: <5; CDK7 (20 nM enz.) (kinact, s^−1) [3]: 8.4e-05 s⁻¹ and 4.63e-05 s⁻¹; CDK7 (20 nM enz.) (kinact/ KI, M^−1*s^−1) [3]: 1546.72 M⁻¹ s⁻¹ and 2895.79 M⁻¹ s⁻¹ and 2153.89 M⁻¹ s⁻¹; Ki [3]: 0.034 µM and 0.029 µM and 0.0215 µM; kinact [3]: 5.26e-05 s⁻¹; kinact/KI ([3]; read-out: CDK7 (20 nM enz.) (kobs/[I], M^−1*s^−1), 20 nM enz.): 800 M⁻¹ s⁻¹
> 10 µM	–	C=CC(=O)N1CC[C@@H](N2CC(c3cc(C)c4c(c3)Nc3ncnc(N5CCS(=O)(=O)CC5)c3[C@@H](C)O4)C2)C1 (single isomer, unassigned) [compound 119]	CDK7_ A549 mutant hCDK7(pIC50) [1]: 4.95; CDK7 (20 nM enz.) (kinact, s^−1) [3]: 6.1e-05 s⁻¹ and 4.27e-05 s⁻¹; CDK7 (20 nM enz.) (kinact/ KI, M^−1*s^−1) [3]: 1923.49 M⁻¹ s⁻¹ and 1433.61 M⁻¹ s⁻¹ and 1881.64 M⁻¹ s⁻¹; Ki [3]: 0.0249 µM and 0.0426 µM and 0.0227 µM; kinact [3]: 4.79e-05 s⁻¹
> 10 µM	–	CC#CC(=O)N1CC[C@H](N2CC(c3cc(C)c4c(c3)Nc3ncnc(N5CCS(=O)(=O)CC5)c3[C@H](C)O4)C2)C1 (single isomer, unassigned) [compound 129]	CDK7_ A549 mutant hCDK7(pIC50) [1]: <5
> 10 µM	0.0832 µM	CC#CC(=O)N1CC[C@H](N2CCC(c3cc(C)c4c(c3)Nc3ncnc(N5CCS(=O)(=O)CC5)c3CO4)CC2)C1 (single isomer, unassigned) [compound 134]	–
4.37 µM	< 0.00245 µM	CC#CC(=O)N1CC[C@](C)(N2CCC(c3cc(C)c4c(c3)Nc3ncnc(N5CCS(=O)(=O)CC5)c3[C@@H](C)O4)CC2)C1 (single isomer, unassigned) [compound 146]	–
> 10 µM	0.105 µM	[2H]C([2H])([2H])C#CC(=O)N1CC[C@@H](N2CC(c3cc(C)c4c(c3)Nc3ncnc(N5CCS(=O)(=O)CC5)c3[C@@H](C)O4)C2)C1 (single isomer, unassigned) [compound 165]	–
> 10 µM	0.132 µM	CCC#CC(=O)N1CC[C@H](N2CC(c3cc(C)c4c(c3)Nc3ncnc(N5CCS(=O)(=O)CC5)c3[C@@H](C)O4)C2)C1 (single isomer, unassigned) [compound 168]	–
8.51 µM	< 0.00977 µM	Cc1cc(C2CN([C@@H]3CCN(C(=O)C#CCN(C)C)C3)C2)cc2c1O[C@H](C)c1c(ncnc1N1CCS(=O)(=O)CC1)N2 (single isomer, unassigned) [compound 171]	–
7.24 µM	~0.0129 µM	Cc1cc(C2CN([C@@H]3CCN(C(=O)C#CCCN(C)C)C3)C2)cc2c1O[C@H](C)c1c(ncnc1N1CCS(=O)(=O)CC1)N2 (single isomer, unassigned) [compound 177]	–
> 10 µM	~0.38 µM	CC#CC(=O)N1CCOC([C@H]2C[C@H](c3cc(C)c4c(c3)Nc3ncnc(N5CCS(=O)(=O)CC5)c3[C@@H](C)O4)C2)C1 (single isomer, unassigned) [compound 185]	–
–	0.269 µM	CC#CC(=O)N1CCOC([C@H]2C[C@H](c3cc(C)c4c(c3)Nc3ncnc(N5CCS(=O)(=O)CC5)c3[C@@H](C)O4)C2)C1 (single isomer, unassigned) [compound 186]	CDK7_ A549 mutant hCDK7(pIC50) [1]: <5
–	0.389 µM	CC#CC(=O)N1CCOC([C@H]2C[C@@H](c3cc(C)c4c(c3)Nc3ncnc(N5CCS(=O)(=O)CC5)c3[C@@H](C)O4)C2)C1 (single isomer, unassigned) [compound 188]	CDK7_ A549 mutant hCDK7(pIC50) [1]: <5
> 10 µM	0.0871 µM	C=CC(=O)N1CC(N2CCC(c3cc(C)c4c(c3)Nc3ncnc(N5CCOC6(COC6)C5)c3CO4)CC2)C1 [compound 68]	–
> 10 µM	> 10 µM	C=CC(=O)N1CC(N2CCC(c3cc(C)c4c(c3)Nc3ncnc(N5CCC(S(C)(=O)=O)CC5)c3CO4)CC2)C1 [compound 70]	–
> 10 µM	0.513 µM	CC#CC(=O)N1CC[C@@H](N2CC(c3cc(C)c4c(c3)Nc3ncnc(N5CCS(=O)(=O)CC5)c3CO4)C2)C1 [compound 127]	–
> 10 µM	–	CC#CC(=O)N1CC[C@H](N2CC(c3cc(C)c4c(c3)Nc3ncnc(N5CCS(=O)(=O)CC5)c3[C@@H](C)O4)C2)C1 [compound 128]	CDK7_ A549 mutant hCDK7(pIC50) [1]: <5
